Data on 1 molecule can be found in patent US12496319B2 (INDUSTRY FOUNDATION OF CHONNAM NATIONAL UNIVERSITY, priority 2020, dated 2025).

Structures are written as SMILES.

In this assay the target is T1, NOD2 (Homo sapiens, UniProt Q9HC29).
T1 construct: host or cells: HEK293 / HEK293T cells carrying a NOD2-responsive luciferase reporter
Briefly: NOD2 activity by luciferase assay in HEK293 cells. The assay is classed as cell-based. As to conditions: 10 ng/ml MDP control, 24 hours, untreated = 1.00. The method, then: Existing literature has reported that the protective effect of lactic acid bacteria on inflammatory bowel disease results from the anti-inflammatory effect of NOD2, which is an innate immune receptor protein. […] Specifically, HEK293 cells were treated with 1 MOI of several types of lactic acid bacteria, which had been transduced to generate luciferase by transcription of the luciferase gene through the stimulation of NOD2. For a control with respect to cell activity, HEK293 cells were treated with 10 ng/ml muramyl dipeptide (MDP) capable of stimulating NOD2 and then cultured in a cell incubator for 24 hours. Thereafter, the NOD2 activity was determined by luciferase assay on the luciferase generated from cell rupture. MDP, which is a component of the peptidoglycan constituting the cell wall of bacteria, is a ligand that directly acts on NOD2, and this was used as a control.

T1 sequence (Q9HC29 whole entry): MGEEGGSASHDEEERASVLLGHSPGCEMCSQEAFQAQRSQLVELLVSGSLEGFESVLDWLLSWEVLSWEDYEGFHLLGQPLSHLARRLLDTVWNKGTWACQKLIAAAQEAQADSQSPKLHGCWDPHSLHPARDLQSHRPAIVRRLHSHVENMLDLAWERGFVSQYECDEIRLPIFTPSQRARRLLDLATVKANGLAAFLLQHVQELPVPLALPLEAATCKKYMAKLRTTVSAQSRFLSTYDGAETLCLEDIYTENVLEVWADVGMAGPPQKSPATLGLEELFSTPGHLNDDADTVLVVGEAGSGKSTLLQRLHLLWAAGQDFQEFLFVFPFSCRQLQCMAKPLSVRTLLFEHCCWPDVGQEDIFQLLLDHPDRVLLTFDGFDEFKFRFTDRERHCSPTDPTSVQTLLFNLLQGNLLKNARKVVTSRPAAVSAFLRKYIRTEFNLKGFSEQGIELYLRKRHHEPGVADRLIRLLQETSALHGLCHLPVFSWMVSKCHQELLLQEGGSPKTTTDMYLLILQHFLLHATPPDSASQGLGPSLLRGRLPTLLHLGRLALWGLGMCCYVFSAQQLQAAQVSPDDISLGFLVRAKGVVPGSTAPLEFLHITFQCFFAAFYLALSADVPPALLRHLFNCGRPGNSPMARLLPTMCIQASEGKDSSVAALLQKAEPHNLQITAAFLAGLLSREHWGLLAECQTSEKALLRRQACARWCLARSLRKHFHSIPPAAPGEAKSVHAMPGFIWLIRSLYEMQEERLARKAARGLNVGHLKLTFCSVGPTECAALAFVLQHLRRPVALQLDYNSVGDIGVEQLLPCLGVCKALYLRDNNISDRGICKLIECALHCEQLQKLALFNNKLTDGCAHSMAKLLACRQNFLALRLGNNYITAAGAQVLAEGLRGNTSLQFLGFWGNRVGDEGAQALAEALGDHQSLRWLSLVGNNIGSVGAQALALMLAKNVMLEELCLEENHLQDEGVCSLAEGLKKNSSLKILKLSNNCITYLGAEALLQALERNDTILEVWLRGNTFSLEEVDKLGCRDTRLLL

Regarding `CC(=O)N[C@H]1C(O)O[C@H](CO)[C@@H](O)[C@@H]1O[C@H](C)C(=O)N[C@@H](C)C(=O)N[C@H](CCC(=O)O)C(N)=O` (mixture of isomers) [MDP, muramyl dipeptide], the “NOD2 Activity” value turned out to be 40.70.
